Experimental data from publication PMC11121381, “ABCG2 Mediates Resistance to the Dual EGFR and PI3K Inhibitor MTX-211 in Cancer Cells” (International Journal of Molecular Sciences, 2024).

What was measured:
[1] = molecular target: T1, epidermal growth factor receptor (EGFR) (Homo sapiens, UniProt P00533); test: inhibition of EGF-induced EGFR phosphorylation (Tyr1068) in cells, immunoblot; format: cell-based
T1 construct: endogenous EGFR in S1 human colon cancer cells

ABCG2 = molecular target: T2, ABCG2 (Homo sapiens, UniProt Q9UNQ0); test: vanadate-sensitive ATPase stimulation (endpoint Pi release) in ABCG2 membrane vesicles; supported by LC-MS/MS cell accumulation with and without Ko143; format: biochemical; conditions: read-out: % of basal ATPase activity (peak stimulation)
T2 construct: human ABCG2 in membrane vesicles of High-Five insect cells
T2 sequence (Q9UNQ0 1-655): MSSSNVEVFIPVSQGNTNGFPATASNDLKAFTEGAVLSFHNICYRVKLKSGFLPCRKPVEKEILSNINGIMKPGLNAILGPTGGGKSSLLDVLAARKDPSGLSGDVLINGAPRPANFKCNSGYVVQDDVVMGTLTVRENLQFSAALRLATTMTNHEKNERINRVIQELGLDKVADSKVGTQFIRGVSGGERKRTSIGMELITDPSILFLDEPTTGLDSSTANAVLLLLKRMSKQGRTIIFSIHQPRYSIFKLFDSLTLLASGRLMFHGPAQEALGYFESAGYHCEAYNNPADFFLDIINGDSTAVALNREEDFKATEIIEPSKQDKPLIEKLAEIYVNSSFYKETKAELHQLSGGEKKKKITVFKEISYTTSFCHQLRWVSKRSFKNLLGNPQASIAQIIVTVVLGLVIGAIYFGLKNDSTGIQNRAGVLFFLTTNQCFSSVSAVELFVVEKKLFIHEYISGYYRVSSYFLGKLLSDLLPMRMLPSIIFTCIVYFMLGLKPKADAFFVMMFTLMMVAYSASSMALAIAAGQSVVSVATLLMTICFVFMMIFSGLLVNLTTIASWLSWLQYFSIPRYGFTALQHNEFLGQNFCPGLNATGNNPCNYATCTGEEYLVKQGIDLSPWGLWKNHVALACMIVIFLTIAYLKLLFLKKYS

T1 sequence (P00533 25-1210): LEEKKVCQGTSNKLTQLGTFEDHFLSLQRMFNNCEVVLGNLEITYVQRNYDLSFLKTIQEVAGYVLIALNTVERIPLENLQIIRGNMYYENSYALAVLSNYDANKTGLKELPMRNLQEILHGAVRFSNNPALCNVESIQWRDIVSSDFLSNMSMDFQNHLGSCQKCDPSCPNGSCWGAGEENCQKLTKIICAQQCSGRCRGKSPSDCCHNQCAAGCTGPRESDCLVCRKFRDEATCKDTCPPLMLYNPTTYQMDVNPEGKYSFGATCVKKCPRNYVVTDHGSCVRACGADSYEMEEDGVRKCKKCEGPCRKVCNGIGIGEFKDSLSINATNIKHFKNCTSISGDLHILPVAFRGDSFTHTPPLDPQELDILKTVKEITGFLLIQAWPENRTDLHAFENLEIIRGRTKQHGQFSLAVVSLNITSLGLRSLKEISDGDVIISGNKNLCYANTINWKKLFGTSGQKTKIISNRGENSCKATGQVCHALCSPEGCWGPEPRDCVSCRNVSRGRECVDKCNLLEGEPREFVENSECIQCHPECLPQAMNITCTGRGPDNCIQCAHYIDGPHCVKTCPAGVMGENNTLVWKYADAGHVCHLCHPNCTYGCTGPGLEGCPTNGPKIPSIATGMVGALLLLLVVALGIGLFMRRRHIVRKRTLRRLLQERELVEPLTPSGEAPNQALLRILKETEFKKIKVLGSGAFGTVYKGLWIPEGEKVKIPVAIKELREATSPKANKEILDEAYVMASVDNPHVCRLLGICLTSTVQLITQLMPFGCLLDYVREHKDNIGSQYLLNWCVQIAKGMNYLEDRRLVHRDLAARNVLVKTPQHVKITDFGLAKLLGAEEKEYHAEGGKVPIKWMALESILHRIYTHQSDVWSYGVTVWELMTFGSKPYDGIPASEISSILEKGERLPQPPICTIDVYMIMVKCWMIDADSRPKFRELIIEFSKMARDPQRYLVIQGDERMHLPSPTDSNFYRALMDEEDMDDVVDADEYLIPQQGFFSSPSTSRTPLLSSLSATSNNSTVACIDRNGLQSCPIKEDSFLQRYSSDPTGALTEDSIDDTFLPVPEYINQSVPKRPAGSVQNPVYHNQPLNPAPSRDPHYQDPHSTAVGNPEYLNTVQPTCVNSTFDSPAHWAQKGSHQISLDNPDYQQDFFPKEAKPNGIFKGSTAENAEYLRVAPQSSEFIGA

SMILES: CS(=O)(=O)Nc1cc(-c2ccc3ncnc(Nc4ccc(F)c(Cl)c4)c3c2)cnc1Cl [MTX-211]
- IC50 [1]: 6.64 ± 1.27 µM
- Emax (ABCG2): 157%
